Test systems include T47D; MDA-MB-435; OVCAR-3; TK-10; ACHN; UACC-257; Hs-578T; OVCAR-4; PC-3; SF-268; MDA-N; HT-29; NCI-H460; K562; SK-MEL-5; A549; NCI/ADR-RES; SF-539; HOP-62; DLD-1.
Holding throughout (experiment): growth of human tumour cells (NCI), 48 h

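48-hour exposure; five concentrations; linearly interpolated endpoints. At the GI50, growth is halved.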 The source made the active and inactive calls. Rule as the data show it: active = GI50 up to about 1.1 µM and inactive = higher. Bounds are passed on as bounds.

Take `CCOC(=O)C1(C(=O)OCC)CSC1`: the GI50 in the test on T47D, in the test on MDA-MB-435, with OVCAR-3, in the test with TK-10, in the test on ACHN and in the test on UACC-257 was > 100 µM (inactive) throughout. For the same compound, the GI50 with Hs-578T, in the test with OVCAR-4, in the test with PC-3, in the test with SF-268, in the test on MDA-N and in the test on HT-29 was > 100 µM (inactive) in each case. Further, the GI50 was 0.263 µM (active) in the test on NCI-H460; > 100 µM (inactive) in the test with K562; > 100 µM (inactive) with SK-MEL-5; > 100 µM (inactive) in the test with A549; > 100 µM (inactive) with NCI/ADR-RES.
As to `CNC(=O)SCC(NC(=O)CCC(N)C(=O)O)C(=O)NCC(=O)O` (stereo unspecified), the GI50 in the test on OVCAR-3 is > 100 µM (inactive); in the test with SF-539 it was > 96.4 µM (inactive); in the test with UACC-257, > 100 µM (inactive); in the test on OVCAR-4 it was > 100 µM (inactive); with SF-268, > 80.4 µM (inactive); in the test on HT-29, > 84.5 µM (inactive). Besides, the GI50 is > 100 µM (inactive) in the test with HOP-62; > 100 µM (inactive) in the test on NCI-H460; 34.8 µM (inactive) in the test with K562; > 100 µM (inactive) in the test on SK-MEL-5; > 100 µM (inactive) in the test on A549; > 83 µM (inactive) in the test on DLD-1. Besides, in the test on NCI/ADR-RES, the GI50 is > 100 µM (inactive).
`O=C1c2ccccc2C(=O)N1CC(CN1C(=O)c2ccccc2C1=O)(C(=O)OCc1ccccc1)C(=O)OCc1ccccc1`: the GI50 with T47D, with MDA-MB-435, in the test with OVCAR-3, in the test with Hs-578T, in the test on PC-3 and in the test with MDA-N was > 100 µM (inactive) each time. In addition, the GI50 in the test with HT-29, with HOP-62, with NCI-H460, in the test on SK-MEL-5 and with NCI/ADR-RES was > 100 µM (inactive) in each case.
Turning to `FC(F)(F)C1=NC(=NNc2nnc(-c3ccccc3)c(-c3ccccc3)n2)N=C(C(F)(F)F)C1`, the GI50 in the test on OVCAR-3 is > 30.7 µM (inactive); with SF-539, 32.9 µM (inactive); with UACC-257 it was 23.9 µM (inactive); with OVCAR-4, 13.1 µM (inactive); with SF-268, 12.8 µM (inactive); with HT-29 it was 16.6 µM (inactive). Also, the GI50 with HOP-62 was 13.4 µM (inactive); in the test with NCI-H460, 7.71 µM (inactive); with K562, 4.11 µM (inactive); in the test with SK-MEL-5 it was 15.8 µM (inactive); in the test with A549, 13.3 µM (inactive); with DLD-1, 12.6 µM (inactive). Moreover, in the test with NCI/ADR-RES, the GI50 is 67.6 µM (inactive).
`NC(=O)Nc1ccc(C(=O)NCCCNC(=O)c2ccc(NC(N)=O)cc2)cc1`: the GI50 in the test with T47D, in the test with MDA-MB-435, in the test on TK-10, in the test with ACHN, with SF-539 and with UACC-257 was > 100 µM (inactive) in each case. The GI50 with Hs-578T, in the test with OVCAR-4, with PC-3, in the test with SF-268, with MDA-N and with HT-29 was > 100 µM (inactive) throughout. Also, the GI50 with HOP-62, in the test with NCI-H460, with K562, in the test with SK-MEL-5, in the test on A549 and in the test on NCI/ADR-RES was > 100 µM (inactive) throughout.
Consider `ICC1CCCO1` (stereo unspecified), for which the GI50 in the test on TK-10, in the test with ACHN, with SF-539, in the test with UACC-257, with OVCAR-4 and with SF-268 was > 100 µM (inactive) in each case. Also, the GI50 with HT-29, in the test on NCI-H460, with SK-MEL-5, in the test with A549 and with DLD-1 was > 100 µM (inactive) each time.
Regarding `CC(C)=CCc1c(C)cc2cc3c(c(O)c2c1O)C(=O)C=C(O)C3(CC=C(C)C)C/C=C(\C)CO` (stereo unspecified), the GI50 in the test on OVCAR-3 was 36.9 µM (inactive); in the test on SF-539, 39.1 µM (inactive); in the test on UACC-257, 43.7 µM (inactive); in the test on OVCAR-4, 37 µM (inactive); with SF-268, 36.7 µM (inactive); with HT-29, 37.2 µM (inactive). Moreover, the GI50 was 36.8 µM (inactive) with HOP-62; 27.4 µM (inactive) with NCI-H460; 23.3 µM (inactive) in the test with K562; 16.4 µM (inactive) with SK-MEL-5; 33.3 µM (inactive) with A549; 32.7 µM (inactive) with DLD-1. Moreover, in the test on NCI/ADR-RES, the GI50 was 47.9 µM (inactive).
For the compound `CC(C)C1OC(=O)/C=C/C=C/C=C/C=C/C=C/CC(O)C(C)C(O)CC(O)CC(O)CC(O)CC(O)CC(O)CC(O)/C=C/C1C` (stereo unspecified), the GI50 in the test on MDA-MB-435, in the test on OVCAR-3, with TK-10, in the test with ACHN, with SF-539 and in the test on UACC-257 was > 100 µM (inactive) throughout. Further, the GI50 with Hs-578T, in the test on OVCAR-4, in the test on PC-3, with SF-268, with HT-29 and in the test with HOP-62 was > 100 µM (inactive) in each case. Further, the GI50 with NCI-H460, in the test on K562, with A549 and in the test with NCI/ADR-RES was > 100 µM (inactive) throughout.
On to `OCC(CO)CC1COc2ccccc2O1` (stereo unspecified), for which the GI50 in the test on T47D, with MDA-MB-435, in the test on OVCAR-3, in the test on TK-10, in the test on ACHN and in the test on SF-539 was > 10 µM (inactive) in each case. Besides, the GI50 with Hs-578T, in the test with OVCAR-4, with PC-3, in the test on SF-268, with MDA-N and in the test with HT-29 was > 10 µM (inactive) in each case. Besides, the GI50 in the test on HOP-62, in the test with NCI-H460, in the test with K562, in the test with SK-MEL-5, in the test with A549 and in the test on NCI/ADR-RES was > 10 µM (inactive) in each case.
In the case of `O=C1C=C(N2CC2)C(=O)C=C1N1CC1`, the GI50 was 1.05 µM (active) with T47D; 1.23 µM (inactive) in the test with MDA-MB-435; 0.0889 µM (active) in the test with OVCAR-3; 0.136 µM (active) in the test with TK-10; 0.0423 µM (active) in the test with ACHN; 0.0931 µM (active) in the test with SF-539. Besides, the GI50 is 0.265 µM (active) in the test with UACC-257; 2.39 µM (inactive) in the test with Hs-578T; 0.216 µM (active) with OVCAR-4; 1.11 µM (active) in the test on PC-3; 0.155 µM (active) in the test with SF-268; 0.515 µM (active) in the test with MDA-N. Besides, the GI50 in the test on HT-29 was 0.204 µM (active); with HOP-62, 0.136 µM (active); in the test with NCI-H460, 0.0401 µM (active); in the test on SK-MEL-5, 0.101 µM (active); in the test with DLD-1, 0.117 µM (active); with NCI/ADR-RES, 0.757 µM (active).
Regarding `CCNC(=O)N(CC)CN(CC)C(=O)NCC`, the GI50 with OVCAR-3, with ACHN, with SF-539, in the test on UACC-257, in the test on SF-268 and with HT-29 was > 100 µM (inactive) throughout. For the same compound, the GI50 in the test with HOP-62, with K562, with A549 and in the test with DLD-1 was > 100 µM (inactive) each time.
Consider `CCCNC1=NC(C)=CSC(Nc2ccccc2)=C1C#N`, for which the GI50 with T47D, in the test with MDA-MB-435, with OVCAR-3, in the test on TK-10, in the test on ACHN and in the test on SF-539 was > 100 µM (inactive) in each case. For the same compound, the GI50 in the test on OVCAR-4, in the test on PC-3, in the test with SF-268, in the test with MDA-N, in the test on HOP-62 and in the test on K562 was > 100 µM (inactive) in each case. Besides, the GI50 in the test with SK-MEL-5, in the test on A549 and with NCI/ADR-RES was > 100 µM (inactive) in each case.
With `C=CCN1C(=O)/C(=C/c2cccs2)N=C1SC1OC(COC(=O)c2ccccc2)C(OC(=O)c2ccccc2)C1OC(=O)c1ccccc1` (stereo unspecified), the GI50 in the test on MDA-MB-435, with OVCAR-3, with TK-10, in the test on ACHN, in the test with SF-539 and in the test on UACC-257 was > 100 µM (inactive) each time. Also, the GI50 in the test with OVCAR-4, in the test with PC-3, in the test on HOP-62, in the test on NCI-H460, with K562 and in the test on SK-MEL-5 was > 100 µM (inactive) in each case. Also, the GI50 in the test on NCI/ADR-RES is > 100 µM (inactive).

The values are drawn from ChEMBL document CHEMBL1201862, “PubChem BioAssay data set” (2004).
